US20240360082A1, “SUBSTITUTED PYRIDONE COMPOUNDS USEFUL TO TREAT ORTH[…]” (priority 2021, published 2024)
pIC50: −log10 of the molar value.

Molecular target: influenza A virus minigenome (PB2, PB1, PA, NP proteins) (UniProt P04665)
Assay type: cell-based
Conditions: read-out: RNP_ Hubei B IC50

influenza A virus minigenome (PB2, PB1, PA, NP proteins), sequence (P04665 whole entry): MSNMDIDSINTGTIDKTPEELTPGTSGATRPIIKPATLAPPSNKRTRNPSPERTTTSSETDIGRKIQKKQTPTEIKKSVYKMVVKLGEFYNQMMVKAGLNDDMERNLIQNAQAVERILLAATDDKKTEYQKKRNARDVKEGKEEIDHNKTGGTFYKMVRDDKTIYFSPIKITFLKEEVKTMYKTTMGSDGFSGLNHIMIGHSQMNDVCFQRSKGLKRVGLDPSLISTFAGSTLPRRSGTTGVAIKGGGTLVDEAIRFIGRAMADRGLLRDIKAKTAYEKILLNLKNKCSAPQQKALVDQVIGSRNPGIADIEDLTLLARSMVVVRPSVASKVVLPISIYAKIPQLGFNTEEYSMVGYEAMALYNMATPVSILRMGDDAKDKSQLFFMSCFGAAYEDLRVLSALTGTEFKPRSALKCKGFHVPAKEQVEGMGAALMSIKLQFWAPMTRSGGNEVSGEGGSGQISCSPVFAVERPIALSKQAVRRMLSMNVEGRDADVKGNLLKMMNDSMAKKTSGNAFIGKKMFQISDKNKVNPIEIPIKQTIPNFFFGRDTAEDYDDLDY

`NC(=O)c1cc(-c2ccc(OCC3COCC(COCC4(F)CC4)O3)cc2)c(C(F)(F)F)[nH]c1=O` (single isomer, unassigned) [Example 365, 5-(4-((6-(((1-fluorocyclopropyl)methoxy)methyl)-1,4-dioxan-2-yl)methoxy)phenyl)-2-oxo-6-(trifluoromethyl)-1,2-dihydropyridine-3-carboxamide] and `NC(=O)c1cc(-c2ccc(OCC3COCC(COCC(F)F)O3)cc2)c(C(F)(F)F)[nH]c1=O` (single isomer, unassigned) [Example 368, 5-(4-((6-((2,2-difluoroethoxy)methyl)-1,4-dioxan-2-yl)methoxy)phenyl)-2-oxo-6-(trifluoromethyl)-1,2-dihydropyridine-3-carboxamide] fall in the same range of pIC50: 5.00 to 5.30 for the first, 5.00 to 5.30 for the second.

`C[C@]1(COCC(F)F)COC[C@@H](COc2ccc(-c3cc(C(N)=O)c(=O)[nH]c3C(F)(F)F)cc2)O1` [Example 431, 5-(4-(((2S,6R)-6-((2,2-difluoroethoxy)methyl)-6-methyl-1,4-dioxan-2-yl)methoxy)phenyl)-2-oxo-6-(trifluoromethyl)-1,2-dihydropyridine-3-carboxamide] and `C[C@]1(COC(F)F)COC[C@@H](COc2ccc(-c3cc(C(N)=O)c(=O)[nH]c3C(F)(F)F)cc2)O1` [Example 425, 5-(4-(((2S,6R)-6-((difluoromethoxy)methyl)-6-methyl-1,4-dioxan-2-yl)methoxy)phenyl)-2-oxo-6-(trifluoromethyl)-1,2-dihydropyridine-3-carboxamide] fall in the same range of pIC50: 5.00 to 5.30 for the first, 5.00 to 5.30 for the second.

`COCC1OC(COc2ccc(-c3cc(C(N)=O)c(=O)[nH]c3C(F)(F)F)cc2)COC1C` (single isomer, unassigned) [Example 392, 5-(4-((6-(methoxymethyl)-5-methyl-1,4-dioxan-2-yl)methoxy)phenyl)-2-oxo-6-(trifluoromethyl)-1,2-dihydropyridine-3-carboxamide] and `COC[C@]1(C)COC[C@H](COc2ccc(-c3cc(C(N)=O)c(=O)[nH]c3C(F)(F)F)cc2)O1` [Example 407, 5-(4-(((2R,6R)-6-(methoxymethyl)-6-methyl-1,4-dioxan-2-yl)methoxy)phenyl)-2-oxo-6-(trifluoromethyl)-1,2-dihydropyridine-3-carboxamide] fall in the same range of pIC50: 5.00 to 5.30 for the first, 5.00 to 5.30 for the second.

`COCCOc1ccc(-c2cc(C(N)=O)c(=O)[nH]c2C(F)(F)F)cc1` [Example 254, 5-(4-(2-methoxyethoxy)phenyl)-2-oxo-6-(trifluoromethyl)-1,2-dihydropyridine-3-carboxamide] and `COCCn1nccc1COc1ccc(-c2cc(C(N)=O)c(=O)[nH]c2C(F)(F)F)cc1` [Example 219, 5-(4-((1-(2-methoxyethyl)-1H-pyrazol-5-yl)methoxy)phenyl)-2-oxo-6-(trifluoromethyl)-1,2-dihydropyridine-3-carboxamide] fall in the same range of pIC50: 4.30 to 4.60 for the first, 4.30 to 4.60 for the second.

First: NC(=O)c1cc(-c2ccc(OCC3(F)COC3)cc2)c(C(F)(F)F)[nH]c1=O [Example 226, 5-(4-((3-fluorooxetan-3-yl)methoxy)phenyl)-2-oxo-6-(trifluoromethyl)-1,2-dihydropyridine-3-carboxamide]
Second: NC(=O)c1cc(-c2ccc(OCC3C[C@@H]4CC[C@H]3O4)cc2)c(C(F)(F)F)[nH]c1=O (single isomer, unassigned) [Example 313, 5-(4-((7-oxabicyclo[2.2.1]heptan-2-yl)methoxy)phenyl)-2-oxo-6-(trifluoromethyl)-1,2-dihydropyridine-3-carboxamide]
The pIC50 of the first is lower: 4.30 to 4.60 for the first, 4.60 to 5.00 for the second.

`NC(=O)c1cc(-c2ccc(OCC3COCC(COCC4(F)CC4)O3)cc2)c(C(F)(F)F)[nH]c1=O` (single isomer, unassigned) [Example 364, 5-(4-((6-(((1-fluorocyclopropyl)methoxy)methyl)-1,4-dioxan-2-yl)methoxy)phenyl)-2-oxo-6-(trifluoromethyl)-1,2-dihydropyridine-3-carboxamide] and `CC1(OCC2COCC(COc3ccc(-c4cc(C(N)=O)c(=O)[nH]c4C(F)(F)F)cc3)O2)COC1` (single isomer, unassigned) [Example 378] fall in the same range of pIC50: 5.00 to 5.30 for the first, 5.00 to 5.30 for the second.

Compared with `NC(=O)c1cc(-c2ccc(OCC3COCCO3)c(C3CC3)c2)c(C(F)(F)F)[nH]c1=O` (centres unmarked) [Example 243, 5-(4-((1,4-dioxan-2-yl)methoxy)-3-cyclopropylphenyl)-2-oxo-6-(trifluoromethyl)-1,2-dihydropyridine-3-carboxamide], `NC(=O)c1cc(-c2ccc(OCC3COC(C(F)F)CO3)cc2)c(C(F)(F)F)[nH]c1=O` (single isomer, unassigned) [Example 344, 5-(4-((5-(difluoromethyl)-1,4-dioxan-2-yl)methoxy)phenyl)-2-oxo-6-(trifluoromethyl)-1,2-dihydropyridine-3-carboxamide] is lower in pIC50: 5.30 to 6.00 for the first, 5.00 to 5.30 for the second. The first is the more potent here.

First: CN1CC(COc2ccc(-c3cc(C(N)=O)c(=O)[nH]c3C(F)(F)F)cc2)OC1=O (centres unmarked) [Example 233, 5-(4-((3-methyl-2-oxooxazolidin-5-yl)methoxy)phenyl)-2-oxo-6-(trifluoromethyl)-1,2-dihydropyridine-3-carboxamide]
Second: CC(F)(F)C1COCC(COc2ccc(-c3cc(C(N)=O)c(=O)[nH]c3C(F)(F)F)cc2)O1 (single isomer, unassigned) [Example 358, 5-(4-((6-(1,1-difluoroethyl)-1,4-dioxan-2-yl)methoxy)phenyl)-2-oxo-6-(trifluoromethyl)-1,2-dihydropyridine-3-carboxamide]
The pIC50 of the first is lower: 4.30 to 4.60 for the first, 5.00 to 5.30 for the second. The second is the more potent here.

Compared with `CCn1cc(COc2ccc(-c3cc(C(N)=O)c(=O)[nH]c3C(F)(F)F)cc2)cn1` [Example 222, 5-(4-((1-ethyl-1H-pyrazol-4-yl)methoxy)phenyl)-2-oxo-6-(trifluoromethyl)-1,2-dihydropyridine-3-carboxamide], `COCCOC[C@@]1(C)COC[C@@H](COc2ccc(-c3cc(C(N)=O)c(=O)[nH]c3C(F)(F)F)cc2)O1` [Example 430, 5-(4-(((2S,6S)-6-((2-methoxyethoxy)methyl)-6-methyl-1,4-dioxan-2-yl)methoxy)phenyl)-2-oxo-6-(trifluoromethyl)-1,2-dihydropyridine-3-carboxamide] is higher in pIC50: 4.30 to 4.60 for the first, 5.00 to 5.30 for the second.

Same assay, conditions: read-out: RNP_Hubei B

`COCc1ccc(-c2cc(C(N)=O)c(=O)[nH]c2C(F)(F)F)cc1` [Example 15, 5-(4-(methoxymethyl)phenyl)-2-oxo-6-(trifluoromethyl)-1,2-dihydropyridine-3-carboxamide] and `CN(C)Cc1ccc(-c2cc(C(N)=O)c(=O)[nH]c2C(F)(F)F)cc1` [Example 45, 5-(4-((dimethylamino)methyl)phenyl)-2-oxo-6-(trifluoromethyl)-1,2-dihydropyridine-3-carboxamide] fall in the same range of pIC50: 4.30 to 4.60 for the first, 4.30 to 4.60 for the second.

`CS(=O)(=O)NCc1ccc(-c2cc(C(N)=O)c(=O)[nH]c2C(F)(F)F)cc1` [Example 49, 5-(4-(methylsulfonamidomethyl)phenyl)-2-oxo-6-(trifluoromethyl)-1,2-dihydropyridine-3-carboxamide] and `CC(O)c1ccc(-c2cc(C(N)=O)c(=O)[nH]c2C(F)(F)F)cc1` (centres unmarked) [Example 37, 5-(4-(1-hydroxyethyl)phenyl)-2-oxo-6-(trifluoromethyl)-1,2-dihydropyridine-3-carboxamide] fall in the same range of pIC50: 4.30 to 4.60 for the first, 4.30 to 4.60 for the second.

First: NC(=O)c1cc(-c2ccc(OCc3ccccc3)cc2)c(C(F)(F)F)[nH]c1=O [Example 4, 5-(4-(benzyloxy)phenyl)-2-oxo-6-(trifluoromethyl)-1,2-dihydropyridine-3-carboxamide]
Second: COCC(Oc1ccc(-c2cc(C(N)=O)c(=O)[nH]c2C(F)(F)F)cc1)c1cccnc1 (centres unmarked) [Example 186, 5-(4-(2-methoxy-1-(pyridin-3-yl)ethoxy)phenyl)-2-oxo-6-(trifluoromethyl)-1,2-dihydropyridine-3-carboxamide]
The pIC50 of the first is higher: 5.00 to 5.30 for the first, 4.30 to 4.60 for the second.

Compared with `NC(=O)c1cc(-c2ccc(OCC3OCC4CCC3O4)cc2)c(C(F)(F)F)[nH]c1=O` (single isomer, unassigned) [Example 317, 5-(4-((3,8-dioxabicyclo[3.2.1]octan-2-yl)methoxy)phenyl)-2-oxo-6-(trifluoromethyl)-1,2-dihydropyridine-3-carboxamide], `NC(=O)c1cc(-c2ccc(OCC3CNCCO3)cc2)c(C(F)(F)F)[nH]c1=O` (centres unmarked) [Example 189, 5-(4-(morpholin-2-ylmethoxy)phenyl)-2-oxo-6-(trifluoromethyl)-1,2-dihydropyridine-3-carboxamide] is lower in pIC50: 5.00 to 5.30 for the first, 4.30 to 4.60 for the second.

First: CN1CCCC(COc2ccc(-c3cc(C(N)=O)c(=O)[nH]c3C(F)(F)F)cc2)C1 (centres unmarked) [Example 92, 5-(4-((1-methylpiperidin-3-yl)methoxy)phenyl)-2-oxo-6-(trifluoromethyl)-1,2-dihydropyridine-3-carboxamide]
Second: NC(=O)c1cc(-c2ccc(OCC3CCCCC3)cc2)c(C(F)(F)F)[nH]c1=O [Example 58, 5-(4-(cyclohexylmethoxy)phenyl)-2-oxo-6-(trifluoromethyl)-1,2-dihydropyridine-3-carboxamide]
The pIC50 of the first is lower: 4.30 to 4.60 for the first, 5.00 to 5.30 for the second.

Compared with `COCCN1CCOC(COc2ccc(-c3cc(C(N)=O)c(=O)[nH]c3C(F)(F)F)cc2)C1` (centres unmarked) [Example 193, 5-(4-((4-(2-methoxyethyl)morpholin-2-yl)methoxy)phenyl)-2-oxo-6-(trifluoromethyl)-1,2-dihydropyridine-3-carboxamide], `CC(c1ccc(-c2cc(C(N)=O)c(=O)[nH]c2C(F)(F)F)cc1)N1CCOCC1` (centres unmarked) [Example 33, 5-(4-(1-morpholinoethyl)phenyl)-2-oxo-6-(trifluoromethyl)-1,2-dihydropyridine-3-carboxamide] is higher in pIC50: 4.30 to 4.60 for the first, 5.30 to 6.00 for the second. The second is the more potent here.

Compared with `CC(Oc1ccc(-c2cc(C(N)=O)c(=O)[nH]c2C(F)(F)F)cc1)c1ccc2nonc2c1` (single isomer, unassigned) [Example 100, (R or S)-5-(4-(1-(benzo[c][1,2,5]oxadiazol-5-yl)ethoxy)phenyl)-2-oxo-6-(trifluoromethyl)-1,2-dihydropyridine-3-carboxamide], `C[C@@H]1CN(Cc2ccc(-c3cc(C(N)=O)c(=O)[nH]c3C(F)(F)F)cc2)C[C@H](C)O1` [Example 35, 5-(4-(((2S,6R)-2,6-dimethylmorpholino)methyl)phenyl)-2-oxo-6-(trifluoromethyl)-1,2-dihydropyridine-3-carboxamide] is lower in pIC50: 5.00 to 5.30 for the first, 4.30 to 4.60 for the second. The first is the more potent here.
